The values below are quoted from earlier work in patent US11229596B2, “Preservative free pharmaceutical ophthalmic compositions” (PHARMATHEN S.A., priority 2016, dated 2022).

In series [1] the test system is intraocular pressure. Particulars: in man.

Structures can show the parent of a compound that is named as a salt. Where two headings read alike, the source gives them in different places.

Turning to `CC(C)OC(=O)CCC/C=C\C[C@@H]1[C@@H](CC[C@@H](O)CCc2ccccc2)[C@H](O)C[C@@H]1O` [Latanoprost], in series [1], the “Duration of pressure reduction” value is reported as “at least 24 hours”, the “Start of reduction of the intraocular pressure after administration” value is “three to four” and the “Time to maximum effect on intraocular pressure” value is on record as “eight to twelve”. Also, under “in acetonitrile”, the Solubility result is recorded as “very soluble”. Further, the Solubility entry (in ethanol) is listed as “freely soluble”. Also, the Solubility result (in water) is reported as “practically insoluble”.

For the compound `CC(C)(C)NC[C@H](O)COc1nsnc1N1CCOCC1` [Timolol maleate], the Solubility result (in chloroform) was “sparingly soluble”; the Solubility result (in cyclohexane) was “insoluble”; the Solubility entry (in ethanol) is reported as “soluble”; the Solubility entry (in ether) is “insoluble”; the Solubility entry (in methanol) was “soluble”; the Solubility entry (in propylene glycol) is given as “sparingly soluble”. Besides, the Solubility entry (in water) is given as “soluble”.
